Data taken from US20040197294A1, “Cosmetic and/or pharmaceutical preparations” (priority 2001, published 2004).
Like-named read-outs stand apart in the source and are kept apart here.

Key:
pig's epidermis [1] = details: pH 5.5
Experimental: (§1) Dermatological compatibility was evaluated by determining the transepidermal water loss (TEWL) in a pig's epidermis. To this end, defined pieces of skin were treated with the various test solutions for 30 minutes at 40° C. and the TEWL value was gravimetrically determined. The test solutions were mixtures of 17% by weight Plantapon® PS 10 (sodium lauryl ether sulfate and Lauryl Glycoside, Cognis Dusseldorf) with 1.5% by weight fatty acid partial glycerides or glycerol ethers (see Table 1) in preservative-containing water (WAS 10% by weight). The pH was adjusted to 5.5 with citric acid.

pig's epidermis [2] = assay: Dermatological compatibility: transepidermal water loss (TEWL), gravimetric; details: […] by weight partial glyceride or glycerol ether in 17% by weight Plantapon PS 10, pH 5.5; skin treated 30 minutes at 40° C.; lower = better compatibility
Experimental: as §1

Molecule	TEWL [%-rel] = [treated/untreated * 100] − 100% (pig's epidermis [1]) [%-rel]	TEWL [%-rel] = [treated/untreated * 100] − 100% (pig's epidermis [2]) [%-rel]
CCCCCCCCOCC(O)CO (centres unmarked) [Example 2, Glycerol monocapryl ether (>90)]	–	5.0
Isostearic acid mono/diglyceride (65:35) [Example 7]	22.0	–
Isostearic acid monoglyceride (>90) [Example 8]	–	18.5

More lines, now with the values ahead:

TEWL [%-rel] = [treated/untreated * 100] − 100% (pig's epidermis [1]) [%-rel]	TEWL [%-rel] = [treated/untreated * 100] − 100% (pig's epidermis [2]) [%-rel]	Molecule
20.5	–	Lauric acid mono/diglyceride (65:35) [Example 9]
–	10.5	CCCCCCCCCCCC(=O)OCC(O)CO (centres unmarked) [Example 10, Lauric acid monoglyceride (>90)]
